Results published in patent US20080063714A1, “Compositions for Encapsulation and Controlled Release” (priority 2003, published 2008).

Columns and labels:
[1] = Penicillin G degradation in acidic solution pH 2.0; assay type: physicochemical; settings: pH 2.0, 2 hours, 37° C.
From the text: For example, particles of the present invention can protect penicillin G from degradation in acidic environments. When exposed to an acidic environment, such as a solution with pH less than about 5.0, penicillin G is rapidly degraded. […] Penicillin G may be encapsulated in particles of the present invention, such as those comprising triazine derivatives of formula I, and protected from degradation in acidic environment. For example, penicillin G encapsulated in crosslinked particles comprising 4-{[4-(4-carboxyanilino)-6-(3-methyl-1H-imidazol-3-ium-1-yl)-1,3,5-triazin-2-yl]amino}benzoate and a mixture of magnesium and aluminum cations may be exposed to an acidic solution with a pH of 2.0 for 2 hours at 37° C.

adenosine deaminase = target: T1, adenosine deaminase (Bos taurus, UniProt P56658); assay: Adenosine deaminase activity (inosine by HPLC) after exposure to acid or water; assay type: biochemical; settings: after 2 hours in 0.1% trifluoroacetic acid pH 2.0 at room temperature
T1 construct: purchased Sigma lot no; 70H8145 (catalogue number not given)
T1 sequence (P56658 2-363 limits assumed): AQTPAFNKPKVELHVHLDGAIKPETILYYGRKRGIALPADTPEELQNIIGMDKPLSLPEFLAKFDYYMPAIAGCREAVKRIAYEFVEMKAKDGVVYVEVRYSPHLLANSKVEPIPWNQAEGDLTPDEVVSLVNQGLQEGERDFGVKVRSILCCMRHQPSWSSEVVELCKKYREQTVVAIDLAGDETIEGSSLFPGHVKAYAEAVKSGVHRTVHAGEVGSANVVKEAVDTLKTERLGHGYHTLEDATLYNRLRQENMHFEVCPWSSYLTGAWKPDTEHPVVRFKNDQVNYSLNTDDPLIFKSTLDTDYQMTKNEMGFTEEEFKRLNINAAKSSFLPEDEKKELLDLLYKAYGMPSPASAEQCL
Method: One portion of the beads was added to a vial containing 20 ml of a 0.1% trifluoroacetic acid in water (pH of 2.0) test solution. The beads were exposed to the acidic test solution at room temperature for two hours. The acidic test solution was then decanted and discarded. The beads were rinsed with 10 mL deionized water. The water was then decanted and discarded. Phosphate buffer (20 mL, pH of 7.0 with 0.15 M NaCl) was added to the vial with the remaining beads and the vial was agitated on a wrist action shaker for one hour to dissolve the beads. The resulting solution was filtered through a 0.22 μm poly(vinylidene fluoride) filter.
The inosine peak area was 733 units.
The other portion of the beads was added to a vial containing 20 mL of deionized water (pH approx. 7.5). The beads were exposed to the water solution for two hours. The water was then decanted and discarded. Phosphate buffer (20 mL, pH of 7.0 with 0.15 M NaCl) was added to the vial with the remaining beads and the vial was agitated on a wrist action shaker for one hour to dissolve the beads. […] Adenosine deaminase activity was determined as described above. […]
Adenosine deaminase was added to a 20 mL of 0.1% trifluoroacetic acid in water (pH of 2.0) solution to prepare an acidic test solution with a concentration of approximately 110 μg/mL adenosine deaminase. […] Adenosine deaminase activity was determined as described above. […]

CC1(C)S[C@@H]2[C@H](NC(=O)Cc3ccccc3)C(=O)N2[C@H]1C(=O)O [Penicillin G]
Degradation of penicillin G in acidic solution [1]: almost completely degraded

B1: Comparative Example: Unencapsulated adenosine deaminase, approximately 110 μg/mL in 0.1% trifluoroacetic acid in water (pH 2.0) (protein, UniProt P56658 2-363, looked up)
Adenosine deaminase: T1 sequence (P56658 2-363 limits assumed)
Adenosine deaminase activity, inosine peak area (adenosine deaminase): 5 units
